One assay deals with areola. The experiment in a line: Dose study of nipple erection and sensitivity, topical oxymetazoline (Example 7). The format is in vivo, human. Particulars: 0.5% topical solution. The protocol: Oxymetazoline HCl 0.1%, 0.2%, 0.5%. A study was conducted to assess the dosage of topical oxymetazoline solution required to elicit nipple erection and sensitivity. Five premenopausal subjects participated in the study. Subjects were not hypertensive, pregnant or breastfeeding. Three formulations were used: Formula A: 0.1% topical oxymetazoline hydrochloride solution; Formula B: 0.2% topical oxymetazoline hydrochloride solution; Formula C: 0.5% topical oxymetazoline hydrochloride solution.
The study was conducted over 3 days. On day 1, subjects were instructed to apply Formula A to both areolas. On day 2, subjects were instructed to apply Formula B to both areolas. On day 3, subjects were instructed to apply Formula C to both areolas. 0.1 mL of each formula was applied using a metered dosage dispenser to each areola. […] With the 0.5% topical oxymetazoline solution, response in nipple erection and sensitivity was obtained approximately within 1 hour and lasted over 8 hours.

The subject of another assay is NAC. The experiment in a line: Acetylcholine receptor agonists: nipple erection and sensitivity (Example 13). To be noted: single topical dose to one NAC, one subject per agent; for Onset Time: 0.4-12.5 mg/cm^2. The format is in vivo, human. Here is the method:
A study was conducted to assess the effectiveness of different acetylcholine receptor agonists on eliciting nipple erection and increasing nipple sensitivity in normal women aged 18-65. Ten subjects were recruited. Each subject was randomly assigned a single agonist. Each subject self-administered a single dose of the agonist to one NAC that was self-reported as the least sensitive (or if no differential sensitivity, then the left NAC). The agonists were applied in topical solutions to the NAC. The subject was supervised by a medical professional. Blood pressure and heart rate were monitored at baseline, 5 minutes, 10 minutes, and 30 minutes. […] Subjects were asked to report if they experienced nipple erection and sensitivity in less than 10 minutes and if the effect lasted more or less than 10 minutes. The subjects all responded to the agonists. The effect was short-lived; however, sensitivity is some of the subjects was reported up 60 minutes later.

Where a name gives a salt, the structure may show the parent alone.

Results on eleven compounds are retold here after patent publication US20170165253A1, “TREATMENT OF SEXUAL DYSFUNCTION AND FOR IMPROVED SEXUAL QUALITY OF LIFE” (ReJoy, priority 2015, published 2017).

`Cc1cc(C(C)(C)C)c(O)c(C)c1CC1=NCCN1` [oxymetazoline, oxymetazoline hydrochloride]: in the assay with areola, the duration of response result is “over 8 hours”; the “time to response in nipple erection and sensitivity” value was no more than 1 h.
As for `CC(=O)OC(C)C[N+](C)(C)C` (stereo not shown) [Methacholine], in the assay on NAC, the “Nipple Erection (Yes/No)” value was “Yes”, the “Nipple Sensitivity (Yes/No)” value is listed as “Yes”, the “Nipple Sensitivity Effect Duration” value is less than 10 min and the “Onset Time” value was less than 10 min.
As to `CC(=O)OC(C)C[N+](C)(C)C.[Cl-]` (stereo not shown) [Mecholyl], in the assay with NAC, the “Nipple Erection (Yes/No)” value is on record as “Yes”, the “Nipple Sensitivity (Yes/No)” value is “Yes”, the “Nipple Sensitivity Effect Duration” value is on record as less than 10 min and the “Onset Time” value is less than 10 min.
Consider `CC1OC2(CS1)CN1CCC2CC1` (stereo not shown) [Cevimeline], for which, in the assay on NAC, the “Nipple Erection (Yes/No)” value is recorded as “Yes”, the “Nipple Sensitivity (Yes/No)” value is listed as “Yes”, the “Nipple Sensitivity Effect Duration” value is less than 10 min and the “Onset Time” value was less than 10 min.
Consider `CN1[C@@H](CC(=O)c2ccccc2)CCC[C@H]1C[C@H](O)c1ccccc1` [Alpha-Lobeline], for which, in the assay with NAC, the “Nipple Erection (Yes/No)” value is recorded as “Yes”, the “Nipple Sensitivity (Yes/No)” value was “Yes”, the “Nipple Sensitivity Effect Duration” value is on record as less than 10 min and the “Onset Time” value is listed as less than 10 min.
For `CC[C@@H]1C(=O)OC[C@@H]1Cc1cncn1C` [Pilocarpine], in the assay with NAC, the “Nipple Erection (Yes/No)” value is recorded as “Yes”, the “Nipple Sensitivity (Yes/No)” value is recorded as “Yes”, the “Nipple Sensitivity Effect Duration” value is on record as less than 5 min and the “Onset Time” value was less than 10 min.
Consider `CC(C[N+](C)(C)C)OC(N)=O` (stereo not shown) [Bethanechol], for which, in the assay on NAC, the “Nipple Erection (Yes/No)” value is “Yes”, the “Nipple Sensitivity (Yes/No)” value is on record as “Yes”, the “Nipple Sensitivity Effect Duration” value is reported as less than 10 min and the “Onset Time” value is recorded as less than 10 min.
In the case of `CCN(CC)CCNC(=O)c1cc(Cl)c(N)cc1OC` [Metaclopramide], in the assay with NAC, the “Nipple Erection (Yes/No)” value was “Yes”, the “Nipple Sensitivity (Yes/No)” value is “Yes”, the “Nipple Sensitivity Effect Duration” value is listed as less than 10 min and the “Onset Time” value was less than 10 min.
Turning to `C[N+](C)(C)CCOC(N)=O` [Carbachol], in the assay with NAC, the “Nipple Erection (Yes/No)” value is on record as “Yes”, the “Nipple Sensitivity (Yes/No)” value is given as “Yes”, the “Nipple Sensitivity Effect Duration” value was less than 10 min and the “Onset Time” value is less than 10 min.
In the case of `CC(=O)OCC[N+](C)(C)C` [Acetylcholine], in the assay with NAC, the “Nipple Sensitivity Effect Duration” value was less than 5 min and the “Onset Time” value is given as less than 10 min.
Regarding `CN1CCCC1c1cccnc1` (stereo not shown) [Nicotine], in the assay on NAC, the “Nipple Erection (Yes/No)” value is on record as “Yes”, the “Nipple Sensitivity (Yes/No)” value is “Yes”, the “Nipple Sensitivity Effect Duration” value is reported as less than 10 min and the “Onset Time” value is less than 10 min.
